Laboratory results reported in US6350741B1, “Inhibitors of interleukin-1β converting enzyme” (Vertex Pharmaceutical, Inc., priority 1996, dated 2002).

Experiments:
[1] = system: IL-1β production in human whole blood; assay: Whole blood assay for IL-1β production; format: cell-based; settings: LPS-stimulated human whole blood, IL-1β by ELISA
Protocol: Whole Blood Assay for IL-1β Production
The whole blood assay is a simple method for measuring the production of IL-1β (or other cytokines) and the activity of potential inhibitors. The complexity of this assay system, with its full complement of lymphoid and inflammatory cell types, spectrum of plasma proteins and red blood cells is an ideal in vitro representation of human in vivo physiologic conditions.
Set incubator or water bath at 30° C. Aliquot 0.25 ml of blood into 1.5 ml eppendorf tubes. Note: be sure to invert the whole blood sample tubes after every two aliquots. Differences in replicates may result if the cells sediment and are not uniformly suspended. Use of a positive displacement pipette will also minimize differences between replicate aliquots.
Prepare drug dilutions in sterile pyrogen-free saline by serial dilution. A dilution series which brackets the apparent Ki for a test compound determined in an ICE inhibition assay is generally used for the primary compound screen. For extremely hydrophobic compounds, prepare compound dilutions in fresh plasma obtained from the same blood donor or in PBS-containing 5% DMSO to enhance solubility.
Add 25 μl test compound dilution or vehicle control and gently mix the sample. Then add 5.0 μl LPS solution (250 ng/ml stocked prepared fresh: 5.0 ng/ml final concentration LPS), and mix again. Incubate the tubes at […] in a water bath for 16-18 hr with occasional mixing. Alternatively, the tubes can be placed in a rotator set at 4 rpm for the same incubation period. This assay should be set up in duplicate or triplicate with the following controls: negative control—no LPS; positive control—no test inhibitor; vehicle control—the highest concentration of DMSO or compound solvent used in the experiment. Additional saline is added to all control tubes to normalize volumes for both control and experimental whole blood test samples.
After the incubation period, whole blood samples are centrifuged for 10 minutes at ˜2000 rpm in the microfuge, plasma is transferred to a fresh microfuge tube and centrifuged at 1000×g to pellet residual platelets if necessary. Plasma samples may be stored frozen at −70° C. prior to assay for cytokine levels by ELISA.
R & D Systems (614 McKinley Place N.E. Minneapolis, Minn. 55413) Quantikine kits may be used for measurement of IL-1β and TNF-α. The assays are performed according to the manufacturer's directions. IL-1β levels of ˜1-5 ng/ml in positive controls among a range of individuals may be observed. A 1:200 dilution of plasma for all samples is usually sufficient for experiments for ELISA results to fall on the linear range of the ELISA standard curves. It may be necessary to optimize standard dilutions if you observe differences in the whole blood assay. Nerad, J. L. et al., J. Leukocyte Biol., 52, pp. 687-692 (1992).

[2] = system: mature IL-1β in human PBMC; assay: PBMC cell assay (IL-1β assay with human peripheral blood mononuclear cells); format: cell-based; settings: LPS-stimulated human PBMC, mature IL-1β by ELISA
Excerpt: IL-1β Assay with a Mixed Population of Human Peripheral Blood Mononuclear Cells (PBMC) or Enriched Adherent Mononuclear Cells
Processing of pre-IL-1β by ICE can be measured in cell culture using a variety of cell sources. Human PBMC obtained from healthy donors provides a mixed population of lymphocyte subtypes and mononuclear cells that produce a spectrum of interleukins and cytokines in response to many classes of physiological stimulators. Adherent mononuclear cells from PBMC provides an enriched source of normal monocytes for selective studies of cytokine production by activated cells.
An initial dilution series of test compound in DMSO or ethanol is prepared, with a subsequent dilution into RPMI-10% FBS media (containing 2 mM L-glutamine, 10 mM HEPES, 50 U and 50 ug/ml pen/strep) respectively to yield drugs at 4×the final test concentration containing 0.4% DMSO or 0.4% ethanol. The final concentration of DMSO is 0.1% for all drug dilutions. A concentration titration which brackets the apparent Ki for a test compound determined in an ICE inhibition assay is generally used for the primary compound screen.
Generally 5-6 compound dilutions are tested and the cellular component of the assay is performed in duplicate, with duplicate ELISA determinations on each cell culture supernatant.
Buffy coat cells isolated from one pint human blood (yielding 40-45 ml final volume plasma plus cells) are diluted with media to 80 ml and LeukoPREP separation tubes (Becton Dickinson) are each overlaid with 10 ml of cell suspension. After 15 min centrifugation at 1500-1800×g, the plasma/media layer is aspirated and then the mononuclear cell layer is collected with a Pasteur pipette and transferred to a 15 ml conical centrifuge tube (Corning). Media is added to bring the volume to 15 ml, gently mix the cells by inversion and centrifuge at 300×g for 15 min. The PBMC pellet is resuspended in a small volume of media, the cells are counted and adjusted to 6×10^6 cells/ml.
For the cellular assay, 1.0 ml of the cell suspension is added to each well of a 24-well flat bottom tissue culture plate (Corning), 0.5 ml test compound dilution and 0.5 ml LPS solution (Sigma #L-3012; 20 ng/ml solution prepared in complete RPMI media; final LPS concentration 5 ng/ml). The 0.5 ml additions of test compound and LPS are usually sufficient to mix the contents of the wells. Three control mixtures are run per experiment, with either LPS alone, solvent vehicle control, and/or additional media to adjust the final culture volume to 2.0 ml. The cell cultures are incubated for 16-18 hr at 37° C. in the presence of 5% CO2.
At the end of the incubation period, cells are harvested and transferred to 15 ml conical centrifuge tubes. After centrifugation for 10 min at 200×g, supernatants are harvested and transferred to 1.5 ml Eppendorf tubes. It may be noted that the cell pellet may be utilized for a biochemical evaluation of pre-IL-1β and/or mature IL-1β content in cytosol extracts by Western blotting or ELISA with pre-IL-1β specific antisera.
PBMC are isolated and prepared as described above. Media (1.0 ml) is first added to wells followed by 0.5 ml of the PBMC suspension. After a one hour incubation, plates are gently shaken and nonadherent cells aspirated from each well. Wells are then gently washed three times with 1.0 ml of media and final resuspended in 1.0 ml media. The enrichment for adherent cells generally yields 2.5-3.0×10^5 cells per well. […]

ICE = target: T1, ICE (Homo sapiens, UniProt P29466); assay: Enzyme assay with UV-visible substrate (ICE inhibition); format: biochemical; settings: Succinyl-Tyr-Val-Ala-Asp-p-Nitroanilide substrate
T1 sequence (P29466 120-297 limits assumed): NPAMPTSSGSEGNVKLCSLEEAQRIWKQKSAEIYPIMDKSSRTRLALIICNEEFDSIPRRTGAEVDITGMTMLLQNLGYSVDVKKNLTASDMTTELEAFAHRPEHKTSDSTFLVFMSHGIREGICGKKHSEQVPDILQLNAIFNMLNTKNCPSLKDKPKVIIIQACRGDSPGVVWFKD
T1 sequence (P29466 317-404 limits assumed): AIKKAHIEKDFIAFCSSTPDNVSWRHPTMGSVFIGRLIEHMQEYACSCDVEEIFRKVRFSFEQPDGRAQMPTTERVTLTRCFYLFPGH
Protocol: 1. Enzyme Assay with UV-visible Substrate
This assay is run using an Succinyl-Tyr-Val-Ala-Asp-p-Nitroanilide substrate. Synthesis of analogous substrates is described by L. A. Reiter (Int. J. Peptide Protein Res., 43, pp. 87-96 (1994)). The assay mixture contains:
65 μl buffer (10 mM Tris, 1 mM DTT, 0.1% CHAPS @ pH 8.1)
10 μl ICE (50 nM final concentration to give a rate of ˜1 mOD/min)
5 μl DMSO/Inhibitor mixture
20 μl 400 μM Substrate (80 μM final concentration)
100 μl total reaction volume
The visible ICE assay is run in a 96-well microtiter plate. Buffer, ICE and DMSO (if inhibitor is present) are added to the wells in the order listed. The components are left to incubate at room temperature for 15 minutes starting at the time that all components are present in all wells. The microtiter plate reader is set to incubate at 37° C. After the 15 minute incubation, substrate is added directly to the wells and the reaction is monitored by following the release of the chromophore (pNA) at 405-603 nm at 37° C. for 20 minutes. A linear fit of the data is performed and the rate is calculated in mOD/min. DMSO is only present during experiments involving inhibitors, buffer is used to make up the volume to 100 μl in the other experiments.
For determination of enzyme inhibition constants (Ki) or the mode of inhibition (competitive, uncompetitive or noncompetitive), the rate data determined in the enzyme assays at varying inhibitor concentrations are computer-fit to standard enzyme kinetic equations (see I. H. Segel, Enzyme Kinetics, Wiley-Interscience, 1975).

IL-1β = assay: LPS-induced IL-1β production in mice; format: in vivo, mouse; settings: PO @ 100 mg/kg, compound given 1 hour relative to LPS challenge
Protocol: In vivo Acute Assay for Efficacy as Anti-inflammatory Agent
LPS-Induced IL-1β Production
Efficacy is evaluated in CD1 mice (n is 6 per condition, for example) challenged with LPS (20 mg/kg IP). The test compounds are prepared in olive oil:DMSO:ethanol (90:5:5) and administered by IP injection one hour after LPS. Blood is collected seven hours after LPS challenge. Serum IL-1β levels are measured by ELISA.
Compounds may also be administered by oral gavage to assess absorption.
We obtained inhibition data in Table 5 using the methods described in Example 12. Efficacy for Prodrugs in LPS-Induced IL-1β Production in Mice. Time of compound administration relative to time of LPS challenge was 1 hour. Dose of compound was PO @ 100 mg/kg.

[3] = In vivo bioavailability determination (oral dosing to rats); settings: rat
Protocol: In vivo Bioavailability Determination
The drugs (10-100 mg/kg) were dosed orally to rats (10 mL/kg) in ethanol/PEG/water, β-cyclodextrin, labrosol/water or cremophor/water. Blood samples were drawn from the carotid artery at 0.25, 0.50, 1, 1.5, 2, 3, 4, 6, and 8 hours after dosing, centrifuged to separate plasma and stored at −70° C. until analyzed. Aldehyde concentrations were determined using HPLC/MS. Pharmacokinetic analysis of data was performed by non-linear regression using RStrip (MicroMath Software, UT). Drug availability values may be determined as follows: (AUC of drug after oral prodrug dosing/AUC of drug after i.v. dosing of drug)×(dose i.v./dose p.o.)×100%.

Row | Compound | IC50 [1] [nM] | Ki (ICE) [nM] | IC50 [2] [nM] | % Inhibition of IL-1β (IL-1β) [%] | blood levels of drug when dosed orally ([3]; oral prodrug dosing) | Cmax ([3]; oral, dose 50 mg/kg, aldehyde (drug) concentration after prodrug dosing) [ng/mL]
1 | (3S)-3-(Isoquinolin-1-oyl)amino-4-oxo-2,3,4,5-tetrahydro-5H-1,5-benzoxazepine-N-[(2RS, 3S)-2-benzyloxy-5-oxo-tetrahydrofuran-3-yl]-5-acetamide [Compound 5a] | – | – | – | 58 | – | –
2 | (3S)-2,5-Dioxo-3-(Isoquinolin-3-oyl)amino-2,3,4,5-tetrahyo-1H-1-benzazepine-N-((2RS, 3S)-2-benzyloxy-5-oxo-tetrahydrofuran-3-yl)-1-acetamide [Compound 16b] | – | – | – | 53 | significant blood levels of drug | 6100
3 | (3S)-3-(Isoquinolin-1-oyl)amino-4-oxo-2,3,4,5-tetrahydo-5H-1,5-benzothiazepine-N-((2RS, 3S)-2-benzyloxy-5-oxo-tetrahydrofuran-3-yl)-5-acetamide [Compound 10b] | – | – | – | 74 | – | –
4 | O=C[C@H](CC(=O)O)NC(=O)CN1C(=O)[C@@H](NC(=O)c2nccc3ccccc23)COc2ccccc21 [Compound 6a] | > 20000 | 22 | 1000 | – | – | –
5 | O=C[C@H](CC(=O)O)NC(=O)CN1C(=O)[C@@H](NC(=O)c2nccc3ccccc23)CC(=O)c2ccccc21 [Compound 17b, (3S)-3-[(3S)-2,5-Dioxo-3-(isoquinolin-1-oyl)amino-2,3,4,5-tetrahydro-1H-1-benzazopine-1-acetylamino]-4-oxo-butyric acid.] | > 20000 | 45 | 1720 | – | – | –

More lines, main results first:

Row | IC50 [1] [nM] | Ki (ICE) [nM] | Compound | IC50 [2] [nM] | % Inhibition of IL-1β (IL-1β) [%] | blood levels of drug when dosed orally ([3]; oral prodrug dosing) | Cmax ([3]; oral, dose 50 mg/kg, aldehyde (drug) concentration after prodrug dosing) [ng/mL]
6 | > 20000 | 20 | O=C[C@H](CC(=O)O)NC(=O)CN1C(=O)[C@@H](NC(=O)c2c[nH]c3ccccc23)COc2ccccc21 [Compound 6c] | 650 | – | – | –
7 | 9500 | 140 | O=C[C@H](CC(=O)O)NC(=O)CN1C(=O)[C@@H](NC(=O)c2nccc3ccccc23)CS(=O)(=O)c2ccccc21 [Compound 19a] | 770 | – | – | –
8 | 3200 | 12 | Cc1cc(C(=O)N[C@H]2CC(=O)c3ccccc3N(CC(=O)N[C@H](C=O)CC(=O)O)C2=O)cc(C)c1O [Compound 17a, (3S)-3-[(3S)-2,5-Dioxo-3-(3,5-dimethyl-4-hydroxybenzoyl)amino-2,3,4,5-tetrahydro-1H-1-benzazepine-1-acetylamino]-4-oxo-butyric acid] | – | – | – | –
9 | 8800 | 7.5 | Cc1cc(C(=O)N[C@H]2CSc3ccccc3N(CC(=O)N[C@H](C=O)CC(=O)O)C2=O)cc(C)c1O [Compound 11a, (3S)-3-[(3S)-3-(3,5-Dimethyl-4-hydroxybenzoyl)amino-4-oxo-2,3,4,5-tetrahydro-5H-1,5-benzothiazepine-5-acetylamino]-4-oxo-butyric acid] | – | – | – | –
10 | 19000 | 14 | O=C[C@H](CC(=O)O)NC(=O)CN1C(=O)[C@@H](NC(=O)c2nccc3ccccc23)CSc2ccccc21 [Compound 11b] | 800 | – | – | –
